pEC50, pKi: −log10 of the molar value. Where only a bound is given, the exact number is not on record here.

This note sets out measurements from ChEMBL document CHEMBL1149119, “Discovery of a potent and novel motilin agonist” (J Med Chem, 2004).

For test [1], the target named is T1, Motilin receptor (Homo sapiens, UniProt O43193). Nature of the test: In vitro effective concentration towards human motilin receptor. It counts as functional.
In test [2] the target is T1, Motilin receptor. Nature of the test: In vitro binding affinity towards human motilin receptor.

T1 sequence (O43193 whole entry): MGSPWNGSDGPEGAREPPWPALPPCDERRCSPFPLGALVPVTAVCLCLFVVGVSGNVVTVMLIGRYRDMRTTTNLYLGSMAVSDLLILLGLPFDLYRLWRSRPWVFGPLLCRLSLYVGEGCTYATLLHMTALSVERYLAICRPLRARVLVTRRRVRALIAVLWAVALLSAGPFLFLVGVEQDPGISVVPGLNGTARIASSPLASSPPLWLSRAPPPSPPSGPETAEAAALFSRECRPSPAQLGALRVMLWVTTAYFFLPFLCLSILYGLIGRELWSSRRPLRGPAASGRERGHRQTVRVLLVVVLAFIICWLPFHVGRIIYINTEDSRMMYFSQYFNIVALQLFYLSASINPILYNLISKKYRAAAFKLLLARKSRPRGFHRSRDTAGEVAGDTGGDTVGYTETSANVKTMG

One may read the pEC50 as the EC50 on a negative log10 scale, so that one unit is a factor of ten. A low value points to a large EC50. Consider `NC(=O)[C@@H](Cc1ccccc1)NC(=O)C1C=CC2(CCNCC2)n2c(=O)n(Cc3ccc4c(c3)OCO4)c(=O)n21` (stereo partly specified), for which, at Motilin receptor [1], the pEC50 was 5.38.
One may read the pKi as the negative decadic logarithm of the Ki, by convention in mol/L. A higher pKi goes with a low Ki. Take `NC(=O)[C@H](CCc1ccccc1)NC(=O)C1C=CC2(CCNCC2)n2c(=O)n(Cc3ccc4c(c3)OCO4)c(=O)n21` (stereo in doubt; 1B): the pEC50 at Motilin receptor [1] is 6.25. Besides, on Motilin receptor [2], the pKi is 5.39.
Taken in the same sequence, the figures for `NC(=O)[C@@H](CCc1ccccc1)NC(=O)[C@@H](CCc1ccccc1)NC(=O)C1CCC2(CCNCC2)n2c(=O)n(Cc3ccc4c(c3)OCO4)c(=O)n21` (stereo partly specified) were 8.14 and 8.57.
`CC[C@H]1OC(=O)[C@H](C)[C@@H](O[C@H]2C[C@@](C)(OC)C[C@@H](C)O2)[C@H](C)[C@@H](O[C@@H]2O[C@H](C)C[C@H](N(C)CC)[C@H]2O)[C@@]2(C)CC(C)=C(O2)[C@H](C)[C@@H](O)[C@H]1C`: the pEC50 on Motilin receptor [1] was 8.38. In addition, the pKi at Motilin receptor [2] is 8.47.
Turning to `NC(=O)[C@H](Cc1ccccc1)NC(=O)C1C=CC2(CCNCC2)n2c(=O)n(Cc3ccc4c(c3)OCO4)c(=O)n21` (stereo partly specified), the pEC50 on Motilin receptor [1] is < 5.00.
With `COC(=O)[C@@H](CCc1ccccc1)NC(=O)C1C=CC2(CCNCC2)n2c(=O)n(Cc3ccc4c(c3)OCO4)c(=O)n21` (stereo partly specified), the pEC50 on Motilin receptor [1] was < 5.00. Besides, the pKi at Motilin receptor [2] was < 5.00.
`NC(=O)[C@@H](CCc1ccccc1)NC(=O)C1C=CC2(CCNCC2)n2c(=O)n(Cc3ccc4c(c3)OCO4)c(=O)n21` (stereo partly specified): on Motilin receptor [1], the pEC50 was < 5.00. The pKi on Motilin receptor [2] is < 5.00.
Turning to `NC(=O)[C@H](CCc1ccccc1)NC(=O)C1C=CC2(CCNCC2)n2c(=O)n(Cc3ccc4c(c3)OCO4)c(=O)n21` (stereo in doubt; 1A), the pEC50 on Motilin receptor [1] is < 5.00. In addition, at Motilin receptor [2], the pKi was 5.24.
Turning to `C[C@@H](NC(=O)C1C=CC2(CCNCC2)n2c(=O)n(Cc3ccc4c(c3)OCO4)c(=O)n21)C(N)=O` (stereo partly specified), the pEC50 at Motilin receptor [1] is < 5.00.
`NC(=O)[C@H](CCc1ccccc1)NC(=O)[C@H](CCc1ccccc1)NC(=O)C1CCC2(CCNCC2)n2c(=O)n(Cc3ccc4c(c3)OCO4)c(=O)n21` (stereo in doubt; 11A): the pEC50 at Motilin receptor [1] was 10.33. The compound also gave a pKi at Motilin receptor [2] of 9.15.
Regarding `C[C@H](NC(=O)C1C=CC2(CCNCC2)n2c(=O)n(Cc3ccc4c(c3)OCO4)c(=O)n21)C(N)=O` (stereo partly specified), the pEC50 at Motilin receptor [1] was < 5.00.
`NC(=O)[C@H](CCc1ccccc1)NC(=O)[C@H](CCc1ccccc1)NC(=O)C1C=CC2(CCNCC2)n2c(=O)n(Cc3ccc4c(c3)OCO4)c(=O)n21` (stereo partly specified): on Motilin receptor [1], the pEC50 was 9.66. In addition, at Motilin receptor [2], the pKi was 8.70.
Taken in the same sequence, the figures for `CC[C@H](C)[C@H](NC(=O)[C@@H]1CCCN1C(=O)[C@@H](NC(=O)[C@@H](N)Cc1ccccc1)C(C)C)C(=O)N[C@@H](Cc1ccccc1)C(=O)N[C@H](C(=O)N[C@@H](Cc1ccc(O)cc1)C(=O)NCC(=O)N[C@@H](CCC(=O)O)C(=O)N[C@@H](CC(C)C)C(=O)N[C@@H](CCC(N)=O)C(=O)N[C@@H](CCCNC(=N)N)C(=O)N[C@@H](CCSC)C(=O)N[C@@H](CCC(N)=O)C(=O)N[C@@H](CCC(=O)O)C(=O)N[C@@H](CCCCN)C(=O)N[C@@H](CCC(=O)O)C(=O)N[C@@H](CCCNC(=N)N)C(=O)N[C@@H](CC(N)=O)C(=O)N[C@@H](CCCCN)C(=O)NCC(=O)N[C@@H](CCC(N)=O)C(=O)O)[C@@H](C)O` [MOTILIN] were 9.82 and 8.51.
`NC(=O)[C@H](CCc1ccccc1)NC(=O)[C@H](CCc1ccccc1)NC(=O)C1CCC2(CCNCC2)n2c(=O)n(Cc3ccc4c(c3)OCO4)c(=O)n21` (stereo in doubt; 11): the pEC50 on Motilin receptor [1] was 9.46. Besides, on Motilin receptor [2], the pKi is 9.00.
Take `NC(=O)[C@H](CCc1ccccc1)NC(=O)C1C=CC2(CCNCC2)n2c(=O)n(Cc3ccc4c(c3)OCO4)c(=O)n21` (stereo in doubt; 13B): on Motilin receptor [1], the pEC50 is < 5.00. Besides, the pKi at Motilin receptor [2] is < 5.00.
